From patent US5192668A, “Synthesis of protease inhibitor” (Merck & Co., Inc., priority 1992, dated 1993)

Biological target: T1, HIV protease (Human immunodeficiency virus type 1 group M subtype B, UniProt P12497)
T1 construct: HIV protease expressed in Escherichia coli; made in house; host or cells: Escherichia coli
Assay: Assay for Inhibition of Recombinant HIV Protease (APRIN 2.1)
Format: biochemical
Conditions: Conc. 1 ng/ml; read-out: APRIN 2.1 Act. (% Inhib.)
Procedure: Assay for Inhibition of Recombinant HIV Protease (APRIN 2.1)
Inhibition studies were performed on the reaction of the HIV protease expressed in Escherichia coli with a tritiated peptide substrate, [^3 H]-acetyl-Val-Ser-Gln-Asn-(beta-napthyl-Ala)-Pro-Ile-Val-Gln-Gly-Arg -Arg-NH2 (MW 1800). The two arginine residues at the carboxyl terminus give this peptide an overall positive charge at acidic pH and enable it to bind to the H^+ form of DOWEX AG-50W-X8 resin and similar resins.
Aliquots of 25 μl containing 6.0-8.0 nM HIV protease in assay buffer (100 mM sodium acetate, pH 5.5 and 0.1% BSA) are placed in assay tubes. The reaction is initiated by addition of 25 μl aliquots of 4.2 μM tritiated peptide substrate in 100 mM sodium acetate, pH 5.5. After incubation for 60 min at 37° C., the reaction is stopped with 100 μl of 5% H3 PO4, then analysed by application of column chromatography.

Q: For `CC(C)(C)OC(=O)N[C@@H](Cc1ccccc1)[C@@H](O)C[C@@H](Cc1ccc(OCC(=O)O)cc1)C(=O)N[C@H]1c2ccccc2C[C@H]1O` [L-694,746], which inhibition at 0.001 µg/mL is on record?
A: The inhibition at 0.001 µg/mL was 88%.
